Test results from patent US5376679A, “Bicyclic or tricyclic biocidal compounds” (Shell Internationale Research Maatschappij B.V., priority 1988, dated 1994).
In brackets after ≈: the same amount, converted by molar mass.

Tests used:
Desulfovibrio sp. = test: Minimum inhibitory concentration, sulphate-reducing bacteria (Dsp); format: cell-based; details: 30° C., 2, 5 and 10 days
Method in brief: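 Desulfovibrio sp. grown 48 h at 30 °C in modified Postgate's Medium B (pH 7.8) served as inoculum into duplicate compound dilution series (100 ppm) in the same medium. Incubated at 30 °C; growth scored as ferrous sulphide blackening at 2, 5 and 10 days to give MIC.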

Staphylococcus aureus = test: Minimum inhibitory concentration, Staphylococcus aureus (Sa); format: cell-based, Staphylococcus aureus (NCIB 6571); details: 30° C., 24 and 72 hours
Method in brief: (§1)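 Bacteria grown 24 h at 30 °C in tryptone soya broth, diluted 1:100 as inoculum. Compound solution (0.3 ml of 50, 100, 500 or 1000 ppm) mixed with 2.7 ml inoculum in duplicate wells, incubated in the dark at 30 °C; growth scored visually at 24 and 72 h to give MIC.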

Chaetomium globosum = test: Minimum inhibitory concentration, Chaetomium globosum (Chg); format: cell-based
Method in brief: (§2)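 Conidial inocula (5×10^5 conidia/ml) in potato dextrose broth were exposed to compound at final 5, 10, 50 and 100 ppm in duplicate wells. Plates sat in the dark at 30° C and growth was scored at 3, 7 and 10 days; MIC taken as lowest concentration without growth.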

Saccharomyces cerevisiae = test: Minimum inhibitory concentration, yeast (Sc); format: cell-based, Saccharomyces cerevisiae (ATCC 9763); details: 30° C., 24 and 72 hours
Method in brief: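 S. cerevisiae inoculum in yeast malt broth exposed to compound at final 5, 10, 50 and 100 ppm in duplicate wells. Plates kept in the dark at 30° C and scored for growth at 24 and 72 hours; MIC taken as lowest concentration without growth.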

Escherichia coli = test: Minimum inhibitory concentration, Escherichia coli (Ec); format: cell-based, Escherichia coli (NCIB 9517); details: 30° C., 24 and 72 hours
Method in brief: as §1

Cladosporium resinae = test: Minimum inhibitory concentration, Cladosporium resinae (Cr); format: cell-based; details: Amorphotheca resinae, 30° C., 3, 7 and 10 days
Method in brief: as §2

Aspergillus niger = test: Minimum inhibitory concentration, Aspergillus niger (An); format: cell-based, Aspergillus niger (CMI 17454); details: 30° C., 3, 7 and 10 days
Method in brief: as §2

Bacillus subtilis = test: Minimum inhibitory concentration, Bacillus subtilis (Bs); format: cell-based; details: 30° C., 24 and 72 hours
Method in brief: as §1

Fusarium culmorum = test: Activity against seedling wheat blight, soil drench (Fs); format: in vivo; parameters: scale not given here; details: 10 kg/ha, 21 days, activity grade 1 or 2, not defined
Method in brief: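 Wheat seeds (var Waggoner) soaked 6 h at 22° C in 7×10^5 spores/ml, sown in sand; 1 day later soil drench at 10 kg/ha (0.36 g/l in 12% v/v acetone/water). Glasshouse at 25° C; at 21 days, stem-base and upper-root lesions scored visually against control seedlings.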

[1] = tested on: Pseudocercosporella herpotrichoides; test: In vitro activity against wheat eyespot (Ph); format: cell-based; parameters: Ph: activity against wheat eyespot: scale not given here; details: in vitro, 100 ppm in agar, 11 days; activity grade 1 or 2, not defined
Method in brief: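 Compound was dispersed from acetone into half-strength potato dextrose agar at 100 ppm final. Two 5 mm mycelial plugs were placed on each plate, which was incubated 11 days at 20–22 °C in darkness. Diametric growth minus plug width was compared with acetone-only agar.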

SMILES | MIC (Desulfovibrio sp.) [µg/mL] | MIC (Staphylococcus aureus) [µg/mL] | MIC (Chaetomium globosum; 30° C., 3, 7 and 10 days) [µg/mL] | MIC (Saccharomyces cerevisiae) [µg/mL] | MIC (Escherichia coli) [µg/mL] | MIC (Cladosporium resinae) [µg/mL] | MIC (Aspergillus niger) [µg/mL] | MIC (Bacillus subtilis) [µg/mL] | Fs: activity against seedling wheat blight (Fusarium culmorum) | Ph: activity against wheat eyespot [1] | MIC (Chaetomium globosum; *only tested at 100 ppm) [µg/mL]
N#CN=[N+]([O-])c1ccc2oc(=O)ccc2c1 [Example 1] | 25 (≈ 116 µM) | > 100 | 10 (≈ 46.5 µM) | 5 to 25 (≈ 23.2 to 116 µM) | > 100 | 25 to 50 (≈ 116 to 232 µM) | 25 (≈ 116 µM) | 50 (≈ 232 µM) | 2 | 2 | 
CC1(C)Cc2cc(Cl)cc([N+]([O-])=NC#N)c2O1 [Example 4] | > 100 | 100 (≈ 397 µM) | > 100 | > 100 | > 100 | 25 (≈ 99.3 µM) | 100 (≈ 397 µM) | 50 (≈ 199 µM) | 2 | 2 | 
CC1Oc2c(cc(Cl)cc2[N+]([O-])=NC#N)C1C (stereo not drawn) [Example 5] | > 100 | > 100 | 5 to 25 (≈ 19.9 to 99.3 µM) | 50 (≈ 199 µM) | > 100 | 25 (≈ 99.3 µM) | 10 (≈ 39.7 µM) | 100 (≈ 397 µM) | 2 | 2 | 
CC1Cc2cc(Cl)cc([N+]([O-])=NC#N)c2O1 (stereo not drawn) [Example 6] | 100 (≈ 421 µM) | 100 (≈ 421 µM) | 25 (≈ 105 µM) | 25 (≈ 105 µM) | > 100 | 25 (≈ 105 µM) | 25 (≈ 105 µM) | 100 (≈ 421 µM) | 2 | 2 | 
CC1Oc2c(cccc2[N+]([O-])=NC#N)C1C (stereo not drawn) [Example 9] | 100 (≈ 460 µM) | > 100 | 50 (≈ 230 µM) | 50 (≈ 230 µM) | > 100 | 25 (≈ 115 µM) | 25 (≈ 115 µM) | 50 (≈ 230 µM) | 2 | 2 | 
N#CN=[N+]([O-])c1cc(Cl)cc2c1OC(CCl)C2 (stereo not drawn) [Example 10] | 100 (≈ 368 µM) | > 100 |  | > 100 | > 100 | 25 (≈ 91.9 µM) | 25 (≈ 91.9 µM) | > 100 | 2 | 2 | < 100
N#CN=[N+]([O-])c1cc(Cl)cc2c1OC(CO)C2 (stereo not drawn) [Example 11] | 100 (≈ 394 µM) | 100 (≈ 394 µM) | 25 (≈ 98.6 µM) | 100 (≈ 394 µM) | 100 (≈ 394 µM) | 50 (≈ 197 µM) | 25 (≈ 98.6 µM) | 25 (≈ 98.6 µM) | 2 | 2 | 
Cc1cc2cccc([N+]([O-])=NC#N)c2o1 [Example 16] | 50 to 100 (≈ 249 to 497 µM) | > 100 |  | 100 (≈ 497 µM) | > 100 | > 100 | 50 (≈ 249 µM) | > 100 | 1 | 1 | 
N#CN=[N+]([O-])c1cccc2c3c(oc12)CCCC3 [Example 17] | > 100 | 100 (≈ 415 µM) | < 100 | 50 (≈ 207 µM) | > 100 | 25 (≈ 104 µM) | < 5 | > 100 | 2 | 1 | 
Cc1oc2c([N+]([O-])=NC#N)cccc2c1C [Example 18] | > 100 | 5 (≈ 23.2 µM) | 100 (≈ 465 µM) | 100 (≈ 465 µM) | > 100 | 100 (≈ 465 µM) | 100 (≈ 465 µM) | > 100 | 2 | 1 | 
Cc1cc2cc([N+]([O-])=NC#N)ccc2o1 [Example 23] | 100 (≈ 497 µM) | > 100 |  | 25 (≈ 124 µM) | > 100 | 25 (≈ 124 µM) | 25 (≈ 124 µM) | 50 (≈ 249 µM) | 2 | 1 | < 100
N#CN=[N+]([O-])c1cc(Cl)cc2c1OCC=C2 [Example 26] | 100 (≈ 424 µM) | 100 (≈ 424 µM) | 50 (≈ 212 µM) | > 100 | > 100 | 25 to 100 (≈ 106 to 424 µM) | 25 to 50 (≈ 106 to 212 µM) | 50 (≈ 212 µM) | 2 | 1 | 
CC1(C)C=Cc2cc(F)cc([N+]([O-])=NC#N)c2O1 [Example 29] | > 100 | > 100 | 5 to 100 (≈ 20.2 to 404 µM) | 50 (≈ 202 µM) | > 100 | 50 to 100 (≈ 202 to 404 µM) | 25 to 100 (≈ 101 to 404 µM) | 100 (≈ 404 µM) | 2 | 2 | 
